Legend:
L1210 = assay: cells; conditions: Mus musculus
Description: In vitro cytotoxicity against L1210 (murine leukemia) cells.

Mus musculus = species: Mus musculus; conditions: in vivo, im
Description: Acute toxicity after intramuscular injection in mice.

Question: With `COc1cc2c(c(OC)c1OC)-c1ccc(SC)c(=S)cc1[C@@H](/N=C(/C)S)CC2` as the compound, how does the IC50 (L1210) read?
Answer: 40 nM

Question: How did the Toxicity (Mus musculus) turn out when `COc1c2c(cc3c1-c1ccc(OC)c(=O)cc1[C@@H](NC(C)=O)CC3)OCO2` was run?
Answer: 9.7 mg/kg

Question: `COc1cc2c(c(OC)c1OC)-c1ccc(SC)c(=S)cc1[C@@H](NC(C)=O)CC2` was tested. Which IC50 (L1210) did it give?
Answer: 30 nM

Question: Which IC50 (L1210) does the source give for `COc1c2c(cc3c1-c1ccc(SC)c(=O)cc1[C@@H](NC(C)=O)CC3)OCO2` [THIOCORNIGERINE] here?
Answer: 10 nM

Source: ChEMBL document CHEMBL1125073, “Antitubulin effects of derivatives of 3-demethylthiocolchicine, methylthio ethers of natural colchicinoids, and thioketones derived from thiocolchicine. Comparison with colchicinoids” (J Med Chem, 1990)
